Values of other authors, collected in patent publication US20080221127A1, “PPAR ACTIVE COMPOUNDS” (Plexxikon Inc, priority 2007, published 2008).

Key:
PPARδ = biological target: T1, PPARδ (Homo sapiens, UniProt Q03181)
T1 sequence (Q03181 1-441): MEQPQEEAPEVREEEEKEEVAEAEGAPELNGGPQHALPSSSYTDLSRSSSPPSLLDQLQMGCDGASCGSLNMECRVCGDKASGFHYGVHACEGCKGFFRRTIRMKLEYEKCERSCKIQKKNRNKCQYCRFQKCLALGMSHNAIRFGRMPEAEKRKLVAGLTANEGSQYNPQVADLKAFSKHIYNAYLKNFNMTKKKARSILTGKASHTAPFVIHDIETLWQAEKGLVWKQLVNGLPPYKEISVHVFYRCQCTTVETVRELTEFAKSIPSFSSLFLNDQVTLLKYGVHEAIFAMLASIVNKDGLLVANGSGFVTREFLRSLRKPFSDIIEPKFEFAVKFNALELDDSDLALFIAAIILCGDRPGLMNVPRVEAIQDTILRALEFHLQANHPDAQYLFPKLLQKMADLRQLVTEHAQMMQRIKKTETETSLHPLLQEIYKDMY

murine PPARα = biological target: T2, murine PPARα (Mus musculus, UniProt P23204)
T2 sequence (P23204 1-468): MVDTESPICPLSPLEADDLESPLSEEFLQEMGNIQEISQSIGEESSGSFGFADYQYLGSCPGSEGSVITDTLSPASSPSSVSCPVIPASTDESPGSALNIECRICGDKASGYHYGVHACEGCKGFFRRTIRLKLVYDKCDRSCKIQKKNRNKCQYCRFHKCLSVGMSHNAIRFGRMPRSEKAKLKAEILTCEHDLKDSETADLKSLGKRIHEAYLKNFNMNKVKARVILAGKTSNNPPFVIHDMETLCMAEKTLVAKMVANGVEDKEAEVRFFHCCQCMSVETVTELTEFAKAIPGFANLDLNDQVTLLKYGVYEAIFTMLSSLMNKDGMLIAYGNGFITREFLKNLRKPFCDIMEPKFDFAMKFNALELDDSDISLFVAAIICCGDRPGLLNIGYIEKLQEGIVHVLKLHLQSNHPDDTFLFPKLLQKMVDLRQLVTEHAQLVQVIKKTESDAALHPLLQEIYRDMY

agonist selectivity for PPARδ over PPARγ (PPARδ): approximately 30 fold
activity on murine PPARα (murine PPARα): inactive
SMILES: CCCc1c(OCCCOc2ccc(OCC(=O)O)cc2)ccc(C(C)=O)c1O [L-165041]
